Measured values from patent US12655116B2, “Substituted isophthalic acid diamides” (Bayer Aktiengesellschaft, priority 2020, dated 2026).

Key:
ABUTH [1] = experiment: Pre-emergence herbicidal action against ABUTH; assay type: in vivo, Abutilon theophrasti; conditions: Abutilon theophrasti, 504 h
Summary of the method: (§1)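 Herbicidal effect was assessed 3 weeks after treatment by visual comparison with untreated controls, 100% denoting dead plants. Aqueous WP or EC preparations had been applied at 600 to 800 l/ha with 0.2% wetting agent to the soil covering freshly sown seeds.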

AMARE [2] = experiment: Pre-emergence herbicidal action against AMARE; assay type: in vivo, Amaranthus retroflexus; conditions: Amaranthus retroflexus, 504 h, 100% = plants have died, 0% = like control plants
Summary of the method: as §1

ECHCG [3] = experiment: Pre-emergence herbicidal action against ECHCG; assay type: in vivo, Echinochloa crus-galli; conditions: Echinochloa crus-galli, 504 h, 320 g/ha
Summary of the method: as §1

HORMU = experiment: Pre-emergence herbicidal action against HORMU; assay type: in vivo, Hordeum murinum; conditions: Hordeum murinum, 504 h; 320 g/ha, pre-emergence
Summary of the method: as §1

MATIN = experiment: Pre-emergence herbicidal action against MATIN; assay type: in vivo, Matricaria inodora; conditions: Tripleurospermum inodorum, 504 h
Summary of the method: as §1

SETVI = experiment: Pre-emergence herbicidal action against SETVI; assay type: in vivo, Setaria viridis; conditions: Setaria viridis, 504 h
Summary of the method: as §1

STEME [4] = experiment: Pre-emergence herbicidal action against STEME; assay type: in vivo, Stellaria media; conditions: Stellaria media, 504 h
Summary of the method: as §1

VIOTR = experiment: Pre-emergence herbicidal action against VIOTR; assay type: in vivo, Viola tricolor; conditions: Viola tricolor, 504 h, dosage 320 g/ha
Summary of the method: as §1

DIGSA [5] = experiment: Pre-emergence herbicidal action against DIGSA; assay type: in vivo, Digitaria sanguinalis; conditions: Digitaria sanguinalis, 504 h
Summary of the method: as §1

ABUTH [6] = experiment: Post-emergence herbicidal action against ABUTH; assay type: in vivo, Abutilon theophrasti; conditions: Abutilon theophrasti, 504 h, visual assessment about 3 weeks after treatment vs untreated controls
Summary of the method: (§2)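 Post-emergence greenhouse test; one-leaf stage, 2–3 wk post-sowing, sandy loam. Foliar spray of WP/EC in water, 600–800 l/ha, +0.2% wetting agent. Visual % action at ~3 wk vs untreated (100% = plants dead).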

AMARE [7] = experiment: Post-emergence herbicidal action against AMARE; assay type: in vivo, Amaranthus retroflexus; conditions: Amaranthus retroflexus, 504 h, 80 g/ha, visual assessment about 3 weeks after treatment, 100% = plants have died, 0% = like control plants
Summary of the method: as §2

AVEFA = experiment: Post-emergence herbicidal action against AVEFA; assay type: in vivo, Avena fatua; conditions: Avena fatua, 504 h, visual assessment about 3 weeks after treatment, 100% = plants have died, 0% = like control plants
Summary of the method: as §2

ECHCG [8] = experiment: Post-emergence herbicidal action against ECHCG; assay type: in vivo, Echinochloa crus-galli; conditions: Echinochloa crus-galli, 504 h
Summary of the method: as §2

POLCO = experiment: Post-emergence herbicidal action against POLCO; assay type: in vivo, Polygonum convolvulus; conditions: Fallopia convolvulus, 504 h, dosage 80 g/ha
Summary of the method: as §2

STEME [9] = experiment: Post-emergence herbicidal action against STEME; assay type: in vivo, Stellaria media; conditions: Stellaria media, 504 h
Summary of the method: as §2

DIGSA [10] = experiment: Post-emergence herbicidal action against DIGSA; assay type: in vivo, Digitaria sanguinalis; conditions: Digitaria sanguinalis, 504 h
Summary of the method: as §2

CNC(=O)c1c(C(F)(F)F)ccc(C(=O)Nc2nnc(C)o2)c1SC [Example 6-58]
100%: pest or weed control at 80 g/ha (ABUTH [1]; 80 g/ha, scored visually after 3 weeks vs untreated controls (100% = plants have died, 0% = like control plants)) | pest or weed control at 320 g/ha (ABUTH [1]; Dosage: 320 g/ha, scored visually after 3 weeks, 100% = plants have died, 0% = like control plants) | pest or weed control at 80 g/ha (AMARE [2]; 80 g/ha, scored visually after 3 weeks vs untreated controls) | pest or weed control at 320 g/ha (AMARE [2]; 320 g/ha, scored visually after 3 weeks) | pest or weed control at 320 g/ha (ECHCG [3]) | pest or weed control at 320 g/ha (MATIN; dosage 320 g/ha) | pest or weed control at 80 g/ha (SETVI; dosage 80 g/ha) | pest or weed control at 320 g/ha (SETVI; dosage 320 g/ha) | pest or weed control at 80 g/ha (DIGSA [5]; dosage 80 g/ha) | pest or weed control at 320 g/ha (DIGSA [5]; dosage 320 g/ha) | pest or weed control at 80 g/ha (POLCO)
80%: pest or weed control at 80 g/ha (MATIN; dosage 80 g/ha) | pest or weed control at 20 g/ha (ABUTH [6]; dosage 20 g/ha) | pest or weed control at 80 g/ha (ABUTH [6]; dosage 80 g/ha) | pest or weed control at 20 g/ha (AVEFA; 20 g/ha) | pest or weed control at 20 g/ha (STEME [9]; 20 g/ha) | pest or weed control at 80 g/ha (STEME [9]; 80 g/ha) | pest or weed control at 20 g/ha (DIGSA [10]; 20 g/ha)
90%: pest or weed control at 320 g/ha (HORMU) | pest or weed control at 80 g/ha (STEME [4]; dosage 80 g/ha) | pest or weed control at 320 g/ha (STEME [4]; dosage 320 g/ha) | pest or weed control at 320 g/ha (VIOTR) | pest or weed control at 80 g/ha (AMARE [7]) | pest or weed control at 80 g/ha (AVEFA; 80 g/ha) | pest or weed control at 20 g/ha (ECHCG [8]; dosage 20 g/ha) | pest or weed control at 80 g/ha (ECHCG [8]; dosage 80 g/ha) | pest or weed control at 80 g/ha (DIGSA [10]; 80 g/ha)
